These are literature values, as cited in patent US20260355312A1, “COMBINED THERAPY DRUG COMPRISING ANTI-HER2 BISPECIFIC ANTIBODY AND USE THEREOF” (JIANGSU ALPHAMAB BIOPHARMACEUTICALS CO., LTD., priority 2023, published 2026).

The series deals with tumor.

For `CC(=O)O[C@@]12CO[C@@H]1C[C@H](O)[C@@]1(C)C(=O)[C@H](O)C3=C(C)[C@@H](OC(=O)[C@H](O)[C@@H](NC(=O)OC(C)(C)C)c4ccccc4)C[C@@](O)([C@@H](OC(=O)c4ccccc4)[C@H]21)C3(C)C` [Docetaxel, docetaxel], the “antitumor activity compared to paclitaxel” value is given as “stronger antitumor activity than paclitaxel”.
